Assay results as given in paper PMC8486872, “A rational blueprint for the design of chemically-controlled protein switches” (Nature Communications, 2021).
Where “and” joins values, the source holds several entries; their conditions need not be identical. Identical values can stand only once.

Legend:
HEK293T cells [1] = test: Effect of drugs on protein production (Luciferase reporter, constitutive Gal4-Rel65); format: cell-based; details: Suppl Fig 5b
Protocol: Supplementary Figure 5: Drug toxicity assessment. […]
HEK293T cells. The HEK293T cells were transfected with the Luciferase reporter and constitutive Gal4-Rel65 expression plasmid (pCMV-Gal4-Rel65-pA). Drugs were added to the transfected cells 24 hours post-transfection, quantification of luciferase activity 24 hours after the addition of the drugs. Each bar represents the mean of three biological replicates ± s.d overlaid with a scatter dot plot of the original […]

HEK293T cells [2] = test: CCK8 cell viability assay; format: cell-based; details: for Normalization of Supplementary Figure5a (CCK8 absorbance): in % (unit assumed); for Absorbance at 450nm (CCK8 colormetric assay): Suppl Fig 5a
Protocol: A cell counting kit-8 (CCK-8) assay (Sigma) was used to measure the cytotoxicity of three drugs on HEK293T cells. 10,000 cells per well were pre-seeded into 96 well plates in 100 µl complete culture medium. The culture medium was changed into drug containing medium with drug concentrations of 0 µM (0.1% DMSO),1 µM, 5 µM and 10 µM. After 24 h drug incubation, 10 µl WST-8 solution was added to each well for 4 h incubation under standard conditions. The absorbance at 450 nm was determined by a multiplate reader (Tecan Infinite 500).
Supplementary Figure 5: Drug toxicity assessment. a) Drug effects on cell viability of HEK293T cells. HEK293T cells were added different concentrations of drugs for an incubation period of 24 hours. WST-8 was added 24 h after drug incubation and the absorbance at 450 nm was measured 4 h later. […]

[3] = tested on: JAK/STAT pathway SEAP expression in HEK293T cells; test: AIR-GEMS ON-switch SEAP assay; details: Fig S11a; 100 nM Drug-2
Protocol: We fused the AIR components in the ectodomains of the GEMS and measured SEAP activity as a reporter for drug-triggered activation.
HEK293T cells were maintained in DMEM medium with 10% FBS (Gibco) and Pen/Strep (Thermo Fisher). Cells were maintained and split every two days at around 80% confluence. HEK293T cells were seeded 24 h before transfection, and transfected with the lipofectamine 3000 kit (Thermo Fisher). Plasmids were cotransfected according to the Table S7. For the drug OFF-switch experiments, drugs were added 12 h post transfection and incubated with cells for 24 h before the SEAP detection assay.
Representative data of cellular assays are presented as individual values and mean values (bars). n = 3 refers to biological replicates. All IC50/EC50 values of cellular assays (CDH-TF, CDH-GEMS, AIR-TF and AIR-GEMS) reported were calculated using four-parameter nonlinear regression ± s.d.
Bcl2 mutants were cloned into the AIR-GEMS

[4] = tested on: SEAP expression in HEK293T cells; test: Background signal of SEAP reporter and single-construct controls; format: cell-based
Protocol: Supplementary Figure 7: Dose-dependence and reversibility characterization of CDHs in CDH- […]
transfected with SEAP reporter S132 and treated with 1 µM Drugs 12 hours post transfection.
Quantification of SEAP was performed 24 hours after drug treatment. b) Drug specificity of CDH-TFs. […]
Background signal of SEAP reporter in the absence of the CDH-GEMS system. HEK293T cells were transfected with pLS566 SEAP reporter plasmids and treated with drugs. Quantification of SEAP was performed 24 hours post drug treatment. f) SEAP activity upon transfecting single or paired […]
Quantification of SEAP activity of three CDHs with DMSO (dark color), specific (light color) and unspecific drug treatment (gray). […]
(culture medium) in panels of b, c, f and g were collected every 12 hours. Values were normalized to zero based on the SEAP expression at time 0. a, b, e, f, g) The bar charts show the mean ± s.d. of n = 3 biologically independent samples overlaid with a scatter dot plot of the original data points.

[5] = target: T1, LD3 in the presence of Drug-1 (Homo sapiens, UniProt Q07817, DEL45-84/F105I/R102E); test: SPR pre-screening and competition of Drug-1 resistant Bcl-XL mutants binding LD3; details: 5 µM receptor mixed with 10 µM Drug-1
T1 construct: 6xHis (N); made in house; host or cells: E. coli BL21(DE3)
Protocol: Supplementary Figure 10: Biophysical and cellular characterization of designed Drug-1- […]
a) Pre-screening of Drug-1 resistant Bcl-XL mutants by SPR. 5 µM of Bcl-XL and five mutants were mixed with 10 µM of Drug-1 and injected over the LD3 immobilized chip to analyse the binding response. […]
dilutions of Drug-1 were pre-mixed with 4 µM LD3 and injected over iBcl-XL_v3 immobilized chip to collect the response. c) Dissociation constant measurement of iBcl-XL_v3 and LD3. Sensorgrams are in black dashed curves and the fitted curves in solid red lines. Kd was using a 1:1 binding model. d) […]
normalized to the positive control (DMSO group). […]

mdm2 = mdm2 (Homo sapiens, UniProt Q00987); design: method as in PMID 26768531; details: read-out: reported binding affinity to mdm2; cited from earlier work
Chain of mdm2 (Q00987 26-109 limits assumed): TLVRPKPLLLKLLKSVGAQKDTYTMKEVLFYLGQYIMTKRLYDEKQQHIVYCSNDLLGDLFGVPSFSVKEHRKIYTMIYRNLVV

T1 sequence (Q07817 with tags, fused parts or gaps DEL45-84/R102E/F105I limits assumed): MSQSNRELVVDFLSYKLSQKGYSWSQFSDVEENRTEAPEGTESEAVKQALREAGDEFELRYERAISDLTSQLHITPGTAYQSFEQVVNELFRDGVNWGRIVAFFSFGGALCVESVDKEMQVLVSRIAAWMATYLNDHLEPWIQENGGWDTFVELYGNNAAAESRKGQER

| Compound | Luciferase production (luminescence) (HEK293T cells [1]; 1 µM) | Luciferase production (luminescence) (HEK293T cells [1]; 5 µM) | Luciferase production (luminescence) (HEK293T cells [1]; 10 µM) | Normalization of Supplementary Figure5a (CCK8 absorbance) (HEK293T cells [2]; 1 µM) | Normalization of Supplementary Figure5a (CCK8 absorbance) (HEK293T cells [2]; 5 µM) | Normalization of Supplementary Figure5a (CCK8 absorbance) (HEK293T cells [2]; 10 µM) | Absorbance at 450nm (CCK8 colormetric assay) (HEK293T cells [2]; 1 µM) | Absorbance at 450nm (CCK8 colormetric assay) (HEK293T cells [2]; 5 µM) | Absorbance at 450nm (CCK8 colormetric assay) (HEK293T cells [2]; 10 µM) | other results |
| --- | --- | --- | --- | --- | --- | --- | --- | --- | --- | --- |
| CN(C)CC#Cc1ccc(OCCCc2sc(N3CCc4cccc(C(=O)Nc5nc6ccccc6s5)c4C3)nc2C(=O)O)c(F)c1 [Drug1] | 298584 and 267400 and 264776 | 259902 and 193284 and 231257 | 268448 and 250247 and 248473 | 107.788 and 102.052 and 84.2322 | 106.001 and 108.808 and 85.1912 | 101.677 and 96.2978 and 81.5907 | 1.2364 and 1.1706 and 0.9662 | 1.2159 and 1.2481 and 0.9772 | 1.1663 and 1.1046 and 0.9359 |  |
| CC1(C)CCC(CN2CCN(c3ccc(C(=O)NS(=O)(=O)c4ccc(NCC5CCOCC5)c([N+](=O)[O-])c4)c(Oc4cnc5[nH]ccc5c4)c3)CC2)=C(c2ccc(Cl)cc2)C1 [Drug2] | 239858 and 221880 and 230049 | 235551 and 211876 and 214947 | 249510 and 226877 and 232289 | 91.0979 and 90.3939 and 94.3325 | 94.2973 and 98.0561 and 96.7732 | 95.7875 and 97.7823 and 95.6546 | 2.3291 and 2.3111 and 2.4118 | 2.4109 and 2.507 and 2.4742 | 2.449 and 2.5 and 2.4456 |  |
| Bcl2 |  |  |  |  |  |  |  |  |  | Reporter signal, 100 nM Drug-2 [3]: 0.7857 and 0.8309 and 0.7087; Reporter signal, single constructs vs pair ([4]; Suppl Fig 7f, CDH2): 12.2479 and 10.8467 and 9.94; Reporter signal, single constructs vs pair ([4]; Suppl Fig 7g (so in the source), CDH2): 12.2479 and 10.8467 and 9.94 |
| Bcl-XL: wildtype drug receptor protein of CDH-1 |  |  |  |  |  |  |  |  |  | Reporter signal, single constructs vs pair ([4]; Suppl Fig 7f, CDH1): 17.1033 and 16.0472 and 16.2645; Reporter signal, single constructs vs pair ([4]; Suppl Fig 7g (so in the source), CDH1): 17.1033 and 16.0472 and 16.2645; inhibition by Drug-1 of binding to LD3 immobilized chip [5]: complete inhibition |
| stapled p53 peptide: stapled p53 peptide (PDB 5afg) used as input peptide motif (LTFAEYWAQLAS) |  |  |  |  |  |  |  |  |  | Kd (mdm2): 0.012 ± 0.003 µM |
